From patent US10532085B2, “Methods for increasing intracellular activity of Hsp70” (Orphazyme A/S, priority 2010, dated 2020)

Key:
[1] = Surface plasmon resonance (BIAcore) BMP interaction; type: binding; settings: acidic pH
Text: Thus, we investigated the interaction of Hsp70 with palmitoyl-oleoyl-phosphatidylcholine (POPC) large unilamellar vesicles (LUVs) containing various membrane-associated anionic lipids, i.e. palmitoyl-oleoyl-phosphatidylserine (POPS; primarily in plasma membrane), cardiolipin (primarily mitochondrial) and BMP (primarily in late endosomes/lysosomes). Taking into account the increasingly acidic milieu of the endo-lysosomal compartment upon maturation to lysosomes, we compared the protein-lipid interactions in neutral (pH 7.4) and acidic (pH 6.0) conditions. […] As reported earlier for POPS, all negatively charged lipids enhanced the binding of rHsp70 to the liposomes at neutral pH approximately 4-fold irrespective of the charge density on the liposome surface (ranging from −1 to −2).
In order to investigate which part of the Hsp70 protein is responsible for the BMP binding, we measured the fluorescence shift of the tryptophans upon docking of rHsp70 and its mutants into BMP-containing liposomes. […] Next, we substituted the two tryptophans in Hsp70 with phenylalanines (W90F and W580F) and studied which tryptophan is responsible for the fluorescence shift induced by lipid binding. […] A more quantitative BIAcore analysis of the BMP—rHsp70 interaction confirmed that Hsp70 interacted with BMP mainly through its ATPase domain. […]

NPC−/− mice [2] = test: NPC1 in vivo pilot study: tremor analysis; settings: automated tremor monitor; particularly pronounced in the lowest frequency range
Experimental: (§1) Eight treated (rHSP70) NPC^−/− versus eight control (PBS only) NPC^−/− controls. Mice were treated IP three times per week with either 10 mg/kg of rHSP70 or vehicle alone (PBS) from 3 weeks of age. Three control and three treated mice were sacrificed at 7 or 9 weeks old (i.e. after 4 or 6 weeks of treatment, respectively). Organs were perfused (PBS), weighed and frozen for biochemical and immunohistochemical analysis.
(§2) Behavioural experiments were performed from 3 weeks of age, as described previously. Briefly, tremor analysis was performed using an automated tremor monitor (San Diego instruments) Gait analysis was performed by painting front and hind paws with non-toxic paint and allowing the mice to walk over Whatman 3M paper. Paw placement was measured to determine how closely their hind paws superimposed their front paws, the length of the stride and the width of their gait.

ASM = biological target: T1, ASM (Homo sapiens, UniProt P17405); test: BIAcore: binding of ASM to BMP-containing LUVs after rHsp70 pretreatment
T1 construct: made in house
T1 sequence (P17405 47-631): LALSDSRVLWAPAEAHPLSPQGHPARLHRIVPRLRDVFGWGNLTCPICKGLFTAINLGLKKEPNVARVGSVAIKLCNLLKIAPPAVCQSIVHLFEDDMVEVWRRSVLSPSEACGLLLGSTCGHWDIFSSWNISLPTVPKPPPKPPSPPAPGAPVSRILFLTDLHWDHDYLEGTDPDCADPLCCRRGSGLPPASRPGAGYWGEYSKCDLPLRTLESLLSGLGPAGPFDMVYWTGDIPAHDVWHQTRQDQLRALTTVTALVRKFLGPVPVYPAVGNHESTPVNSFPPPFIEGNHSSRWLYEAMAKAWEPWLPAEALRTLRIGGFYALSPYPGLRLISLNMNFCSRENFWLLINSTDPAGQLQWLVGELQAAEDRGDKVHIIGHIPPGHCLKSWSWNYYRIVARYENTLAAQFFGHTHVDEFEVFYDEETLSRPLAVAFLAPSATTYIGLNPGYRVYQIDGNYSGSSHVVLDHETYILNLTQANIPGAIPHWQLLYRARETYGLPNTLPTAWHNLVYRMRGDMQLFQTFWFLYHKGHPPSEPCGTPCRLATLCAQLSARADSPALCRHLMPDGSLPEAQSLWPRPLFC
Text: BMP binds ASM with high affinity and stimulates its ability to hydrolyze sphingomyelin to ceramide and phosphorylcholine. […] In order to test whether ASM is responsible for the lysosome stabilizing effect we treated the cells with desipramine, a well characterized pharmacological ASM inhibitor. […] It should be noted that akin to rHsp70, also rASM localized to the lysosomes.
For preparation of LUVs a lipid mixture consisting of 10 mol % sphingomyelin, 50 mol % phosphatidylcholine, 20 mol % cholesterol and 20 mol % BMP dissolved in organic solvents, was dried under a stream of argon and rehydrated in Tris/HCl buffer (pH 7.4). The mixture was freeze-thawed nine times in liquid nitrogen and then in an incubator at 37° C. After ultrasound bath for 15 min the mixture was passed 21 times through a polycarbonate membrane with a pore diameter of 100 nm. Surface plasmon resonance measurements were performed using a BIAcore 2000 system at 25° C. LUVs (total lipid concentration 0.1 mM) were immobilized on the surface of a L1 sensor chip (BIAcore) in PBS (loading buffer). The running buffer used was sodium acetate buffer (50 mM, pH 4.5). As a control, acid sphingomyelinase (0.2 μM, 60 μl in running buffer) was injected directly on the liposome surface. Response units between 4100 RU—5250RU were obtained. […]

NPC−/− mice [3] = test: NPC1 in vivo pilot study: video recording and observation of condition; settings: 10 mg/kg IP three times per week
Experimental: as §1
Due to the small number of animals remaining after the 7 and 9 week time points we were unable to draw any conclusions regarding increased survival.

NPC−/− mice [4] = test: NPC1 in vivo pilot study: gait analysis; settings: 10 mg/kg IP three times per week
Experimental: as §1, §2

NPC−/− mice [5] = test: NPC1 in vivo pilot study: growth curves; settings: 10 mg/kg IP three times per week from 3 weeks of age vs PBS
Experimental: FIG. 12: Control NPC−/− mice (A) have shallower and more sporadic growth patterns than HSP70 treated mice (B). Points where growth curves stop abruptly, indicates mice killed for organs. In panel A: Series 1 and 3 are female; Series 2 and 5-8 are male. In panel B: Series 2 and 4-7 are female; Series 1, 3, and 8 are male.
as §1

NPC−/− mice [6] = test: NPC1 in vivo pilot study: brain sphingosine (HPLC)
Experimental: as §1
Organs were homogenised without any added buffer and frozen as 10 ul aliquots. Fresh aliquots were reconstituted to 100 ul with PBS prior to biochemical analysis. Protein determination for each aliquot was performed by BCA protein assay. Cholesterol assays were performed using the Amplex Red Cholesterol Assay from Invitrogen^i. Sphingosine was isolated by sphingoid base extraction and analysed by HPLC^i. GSLs were extracted and analysed by fluorescent HPLC^i. All results were standardised for protein content.

[7] = video recording at 9 and 10 weeks

## rHsp70: recombinant (human) heat shock protein 70; in some tests labelled with Alexa Fluor 488
[1]
  interaction with BMP (BIAcore): high affinity binding
NPC−/− mice [2]
  tremor: increased tremor from 3 weeks of treatment and remained increased until endstage
ASM; higher rHsp70 concentrations
  subsequent binding of ASM to BMP-containing LUVs: inhibitory effect
ASM; pretreatment with rHsp70 at sub-equimolar concentrations
  subsequent binding of ASM to BMP-containing LUVs: facilitated the subsequent binding of ASM
NPC−/− mice [3]
  condition at the point of culling: deteriorated quite badly within the space of a few days
NPC−/− mice [3]; [7]
  activity and tremor on video: more active and had increased tremor
  size and coat condition: larger, with better coat condition
NPC−/− mice [4]
  gait (front:hind paw placement, stride length, gait width): no difference
NPC−/− mice [5]
  growth curves (body weight): rise more steadily and reach higher weights
NPC−/− mice [6]; 7 week
  sphingosine in brain: no significant difference
NPC−/− mice [6]; 9 week
  sphingosine in brain: slight, yet significant (p<0.005, **) increased levels of sphingosine
